Source: the NIST ThermoML archive (doi:10.1021/je049636m)

Details: Liquid

Cc1ccccc1 [toluene]
Details | viscosity [mPa·s]
298.15 K, 100 kPa | 0.555
298.15 K, 2110 kPa | 0.5649
298.15 K, 4100 kPa | 0.5743
298.15 K, 6100 kPa | 0.585
298.15 K, 8110 kPa | 0.5937
298.15 K, 10110 kPa | 0.6024
323.15 K, 100 kPa | 0.4188
323.15 K, 2080 kPa | 0.429
323.15 K, 4110 kPa | 0.4348
323.15 K, 6000 kPa | 0.4409
323.15 K, 8120 kPa | 0.4493
323.15 K, 10050 kPa | 0.455
323.15 K, 12210 kPa | 0.4637
323.15 K, 15000 kPa | 0.4736
348.15 K, 100 kPa | 0.3331
348.15 K, 2120 kPa | 0.3382
348.15 K, 12110 kPa | 0.3664
348.15 K, 15210 kPa | 0.3759

viscosity [mPa·s], Vibrating wire viscometry
Details | 100 kPa | 10000 kPa | 20000 kPa | 30000 kPa | 40000 kPa
298.15 K | 0.5551 | 0.6003 | 0.6445 | 0.6953 | 0.751
323.15 K | 0.4223 | 0.4573 | 0.4945 | 0.5313 | 0.5718
348.15 K | 0.3285 | 0.3583 | 0.3875 | 0.4165 | 0.4483
